Reference: paper PMC10413920, “Design, synthesis and in vitro biological studies of novel triazoles with potent and broad-spectrum antifungal activity” (Journal of Enzyme Inhibition and Medicinal Chemistry, 2023)
≈ marks a conversion by molar mass, not a printed value.

Tests used:
[1] = tested on: C. albicans SC5314; test: GC-MS analysis of sterol composition; assay type: cell-based, Candida albicans; details: 8 µg/mL, 8 h; for ergosterol content of the fungal cells (of total sterols): control 89.85%
Protocol: As the major fungal sterol, ergosterol accounted for 89.85% of the total sterols in the control group, zymosterol accounted for 8.80%, in addition to several other sterols. […] In contrast, the content of other sterols in the bypass pathway increased.
Overnight cultured C. albicans SC5314 fungal cells were collected and diluted to 5 × 10^6 cells/mL in YEPD medium. […] The fungal cells were cultured by shaking (200 rpm) at 30 °C. After incubation for 8 h, the fungal suspension was centrifuged (3000 rpm, 1 min), harvested and washed twice with distilled water carefully. The saponifying agent (6 ml of 15% NaOH resolved in 90% ethanol) was added to the precipitate. After 1 h of saponification at 80 °C, sterols were extracted with hexane (3 × 5 ml). The combined extracts were evaporated in a water bath and washed once with water. The residue was dried in a 60 °C water bath to obtain the total sterols. Finally, the total sterol was analysed by GC-MS and the structures of each sterol content were identified and compared with the National Institute of Standards and Technology (NIST) database.

[2] = tested on: FCZ-resistant C. albicans 901; test: MIC against FCZ-resistant strains, microdilution; assay type: cell-based, Candida albicans; details: FCZ-resistant isolate, 30 °C, 24 h; for MIC: Candida albicans, read-out: MIC, C.alb 901
From the text: (§1) The alarming impact of drug resistance amongst Candida spp. is an emerging problem globally. Rising rates of azole-resistant Candida spp. are associated with an increase in treatment failures. Candida auris is characterised by a high level of multi-drug resistance. It has been reported in more than 45 countries and has caused serious hospital outbreaks with crude mortality rates as high as 72%[13]^,[14].
(§2) All fungal strains used in this study were obtained from the American Type Culture Collection (ATCC) and Changhai Hospital (Shanghai, China). All strains were cultivated by shaking (200 rpm) at 30 °C in YEPD medium (1% yeast extract, 2% peptone, and 2% dextrose) to an exponential growth stage.
(§3) Fungal cells at the exponential growth stage were collected and resuspended in RPMI 1640 medium, then diluted to 1 × 10^3 cells/mL. The suspension of fungal cells was inoculated into 96-well plates. Antifungal compounds were serially added and diluted in a 2-fold series to a final concentration range of 64.0–0.125 µg/mL. RPMI 1640 medium with no fungal cells served as a blank control. […] C. albicans, C. glabrata, C. parapsilosis, C. tropicalis, and C. auris cells were incubated at 30 °C for 24 h, C. neoformans and A. fumigatus cells were incubated at 30 °C for 48 h. The optical density (OD630) at 630 nm was measured by a spectrophotometer, which was used to calculate the MIC80 values of each compound.

[3] = tested on: Aspergillus fumigatus 7544; test: Broth microdilution MIC (CLSI M27-A3/M60); assay type: cell-based; details: Aspergillus fumigatus, 7544; MIC80 (≥80% growth inhibition), 30 °C, 48 h; read-out: MIC, A. fum 7544
Protocol: (§4) According to the Clinical Laboratory Standards Institute (CLSI, M27-A3 and M60) protocols[10]^,[11], the target compounds were evaluated for their in vitro antifungal activity by the broth microdilution method. The fungi strains used in this study were obtained from the American Type Culture Collection (ATCC) and Changhai Hospital (Shanghai, China). […] Fluconazole (FCZ) and ketoconazole (KCZ) were used as positive controls.
as §2
(§5) Fungal cells at the exponential growth stage were collected and resuspended in RPMI 1640 medium, then diluted to 1 × 10^3 cells/mL. The suspension of fungal cells was inoculated into 96-well plates. Antifungal compounds were serially added and diluted in a 2-fold series to a final concentration range of 64.0–0.125 µg/mL. RPMI 1640 medium with no fungal cells served as a blank control. The fungal suspensions containing DMSO and FCZ served as the negative control and the positive control, respectively. C. albicans, C. glabrata, C. parapsilosis, C. tropicalis, and C. auris cells were incubated at 30 °C for 24 h, C. neoformans and A. fumigatus cells were incubated at 30 °C for 48 h. The optical density (OD630) at 630 nm was measured by a spectrophotometer, which was used to calculate the MIC80 values of each compound.

[4] = tested on: Candida albicans SC5314; test: Broth microdilution MIC (CLSI M27-A3/M60); assay type: cell-based; details: MIC80 (≥80% growth inhibition), 30 °C, 24 h; for MIC: Candida albicans, SC5314, read-out: MIC, C. alb SC5314
Protocol: as §4, §2, §5

[5] = tested on: Candida tropicalis 8915; test: Broth microdilution MIC (CLSI M27-A3/M60); assay type: cell-based; details: Candida tropicalis, 8915; MIC80 (≥80% growth inhibition), 30 °C, 24 h; read-out: MIC, C. tro 8915
Protocol: as §4, §2, §5

[6] = tested on: Cryptococcus neoformans 22-21; test: Broth microdilution MIC (CLSI M27-A3/M60); assay type: cell-based; details: 2221, MIC80 (≥80% growth inhibition), 30 °C, 48 h, read-out: MIC, C. neo 22-21
Protocol: as §4, §2, §5

[7] = tested on: Candida glabrata 537; test: Broth microdilution MIC (CLSI M27-A3/M60); assay type: cell-based; details: MIC80 (≥80% growth inhibition), 30 °C, 24 h; for MIC: Nakaseomyces glabratus, 537, read-out: MIC, C. gla 537
Protocol: as §4, §2, §5

[8] = tested on: Candida parapsilosis 22-20; test: Broth microdilution MIC (CLSI M27-A3/M60); assay type: cell-based; details: Lodderomyces parapsilosis, 2220; MIC80 (≥80% growth inhibition), 30 °C, 24 h; read-out: MIC, C. par 22-20
Protocol: as §4, §2, §5

[9] = in vitro; details: rabbit
[10] = tested on: C. auris 919; test: MIC against FCZ-resistant strains, microdilution; assay type: cell-based, Candida auris; details: Candidozyma auris, FCZ-resistant isolate, 30 °C, 24 h
From the text: as §1, §2, §3

[11] = tested on: C. auris 918; test: MIC against FCZ-resistant strains, microdilution; assay type: cell-based, Candida auris; details: Candidozyma auris, FCZ-resistant isolate, 30 °C, 24 h
From the text: as §1, §2, §3

Row | Structure (SMILES) | proportion of 14α-methylfecosterol (of total sterols) [1] [%] | proportion of eburicol (of total sterols) [1] [%] | proportion of lanosterol (of total sterols) [1] [%] | proportion of obtusifoliol (of total sterols) [1] [%] | ergosterol content of the fungal cells (of total sterols) [1] [%] | MIC [2] [µg/mL] | MIC, C.alb 901 [2] [µg/mL] | MIC [3] [µg/mL] | MIC [4] [µg/mL] | MIC, C. alb SC5314 [4] [µg/mL] | MIC [5] [µg/mL] | MIC [6] [µg/mL] | MIC, C. gla 537 [7] [µg/mL] | MIC [7] [µg/mL] | MIC [8] [µg/mL] | hemolysis at 1 h, 16 µg/mL [9] [%] | MIC [10] [µg/mL] | MIC [11] [µg/mL] | hemolysis at 1 h, 32 µg/mL [9] [%] | hemolysis at 1 h, 64 µg/mL [9] [%]
1 | C[C@@H](NC(=O)CCc1ccccc1)[C@](O)(Cn1cncn1)c1ccc(F)cc1F [A1] | 31.11 | 19.29 | 23.42 | 20.09 | 5.44 | 1 (≈ 2.5 µM) | 1.0 (≈ 2.5 µM) | 64 (≈ 160 µM) | ≤ 0.125 | ≤ 0.125 | > 64 | 0.25 (≈ 0.624 µM) | ≤ 0.125 | ≤ 0.125 | 0.5 (≈ 1.25 µM) | 0.95 | 32 (≈ 79.9 µM) | 64 (≈ 160 µM) |  | 
2 | C[C@@H](NC(=O)CCc1ccc(C(C)(C)C)cc1)[C@](O)(Cn1cncn1)c1ccc(F)cc1F [A9] |  |  |  |  | 5.17 | 32 (≈ 70.1 µM) |  | 32 (≈ 70.1 µM) | ≤ 0.125 | ≤ 0.125 | > 64 | ≤ 0.125 |  | ≤ 0.125 | 0.25 (≈ 0.548 µM) | 0.78 | 32 (≈ 70.1 µM) | > 64 |  | 
3 | CC(=O)c1ccc(CCC(=O)N[C@H](C)[C@](O)(Cn2cncn2)c2ccc(F)cc2F)cc1 [A11] |  |  |  |  |  |  |  | > 64 | 2 (≈ 4.52 µM) |  | > 64 | 1 (≈ 2.26 µM) |  | 1 (≈ 2.26 µM) | 4 (≈ 9.04 µM) |  |  |  |  | 
4 | C[C@@H](NC(=O)CCc1ccc(F)c(F)c1)[C@](O)(Cn1cncn1)c1ccc(F)cc1F [A14] |  |  |  |  |  | 4 (≈ 9.17 µM) |  | 64 (≈ 147 µM) | ≤ 0.125 |  | 64 (≈ 147 µM) | 1 (≈ 2.29 µM) |  | ≤ 0.125 | 1 (≈ 2.29 µM) |  | > 64 | > 64 |  | 
5 | C[C@@H](NC(=O)CCc1ccc(Cl)c(F)c1)[C@](O)(Cn1cncn1)c1ccc(F)cc1F [A15] |  |  |  |  |  | 8 (≈ 17.7 µM) |  | 32 (≈ 70.7 µM) | ≤ 0.125 |  | 8 (≈ 17.7 µM) | 0.5 (≈ 1.1 µM) |  | ≤ 0.125 | 0.5 (≈ 1.1 µM) |  | 64 (≈ 141 µM) | 64 (≈ 141 µM) |  | 
6 | C[C@@H](NC(=O)CCc1ccc(Cl)c(Cl)c1)[C@](O)(Cn1cncn1)c1ccc(F)cc1F [A16] |  |  |  |  |  | 2 (≈ 4.26 µM) |  | 64 (≈ 136 µM) | ≤ 0.125 |  | 8 (≈ 17 µM) | ≤ 0.125 |  | ≤ 0.125 | 0.5 (≈ 1.07 µM) |  | > 64 | > 64 |  | 
7 | C[C@@H](NC(=O)CCc1cc(F)cc(F)c1)[C@](O)(Cn1cncn1)c1ccc(F)cc1F [A17] |  |  |  |  |  | 4 (≈ 9.17 µM) |  | 32 (≈ 73.3 µM) | ≤ 0.125 |  | 16 (≈ 36.7 µM) | 0.5 (≈ 1.15 µM) |  | ≤ 0.125 | 0.5 (≈ 1.15 µM) |  | > 64 | > 64 |  | 
8 | Cc1cccnc1CCC(=O)N[C@H](C)[C@](O)(Cn1cncn1)c1ccc(F)cc1F [A19] |  |  |  |  |  |  |  | > 64 | 1 (≈ 2.41 µM) |  | > 64 | 2 (≈ 4.81 µM) |  | 1 (≈ 2.41 µM) | 2 (≈ 4.81 µM) |  |  |  |  | 
9 | Cc1ccnc(CCC(=O)N[C@H](C)[C@](O)(Cn2cncn2)c2ccc(F)cc2F)c1 [A20] |  |  |  |  |  |  |  | > 64 | 1 (≈ 2.41 µM) |  | > 64 | 4 (≈ 9.63 µM) |  | 2 (≈ 4.81 µM) | 4 (≈ 9.63 µM) |  |  |  |  | 
10 | Cc1ccc(CCC(=O)N[C@H](C)[C@](O)(Cn2cncn2)c2ccc(F)cc2F)nc1 [A21] |  |  |  |  |  |  |  | > 64 | 2 (≈ 4.81 µM) |  | > 64 | 4 (≈ 9.63 µM) |  | 2 (≈ 4.81 µM) | 4 (≈ 9.63 µM) |  |  |  |  | 
11 | Cc1ccncc1CCC(=O)N[C@H](C)[C@](O)(Cn1cncn1)c1ccc(F)cc1F [A23] |  |  |  |  |  |  |  | > 64 | 64 (≈ 154 µM) |  | > 64 | 8 (≈ 19.3 µM) |  | 1 (≈ 2.41 µM) | 16 (≈ 38.5 µM) |  |  |  |  | 
12 | Cc1cncc(CCC(=O)N[C@H](C)[C@](O)(Cn2cncn2)c2ccc(F)cc2F)c1 [A24] |  |  |  |  |  |  |  | > 64 | 16 (≈ 38.5 µM) |  | > 64 | 32 (≈ 77 µM) |  | 4 (≈ 9.63 µM) | 32 (≈ 77 µM) |  |  |  |  | 
13 | Cc1ccc(CCC(=O)N[C@H](C)[C@](O)(Cn2cncn2)c2ccc(F)cc2F)cn1 [A25] |  |  |  |  |  |  |  | > 64 | 16 (≈ 38.5 µM) |  | > 64 | 16 (≈ 38.5 µM) |  | 2 (≈ 4.81 µM) | 64 (≈ 154 µM) |  |  |  |  | 
14 | C[C@@H]1[C@H](O)[C@@H](C)/C=C/C=C/C=C/C=C/C=C/C=C/C=C/[C@H](O[C@@H]2O[C@H](C)[C@@H](O)[C@H](N)[C@@H]2O)C[C@@H]2O[C@](O)(C[C@@H](O)C[C@@H](O)[C@H](O)CC[C@@H](O)C[C@@H](O)CC(=O)O[C@H]1C)C[C@H](O)[C@H]2C(=O)O [AmB, amphotericin B] |  |  |  |  |  |  |  |  |  |  |  |  |  |  |  | 4.87 |  |  | 57.7 | 100
15 | CC(=O)N1CCN(c2ccc(OCC3COC(Cn4ccnc4)(c4ccc(Cl)cc4Cl)O3)cc2)CC1 (stereo not drawn) [KCZ, ketoconazole, reference compound] |  |  |  |  |  |  |  | 4 (≈ 7.53 µM) | 4 (≈ 7.53 µM) |  | 16 (≈ 30.1 µM) | 0.125 (≈ 0.235 µM) |  | 1 (≈ 1.88 µM) | 0.5 (≈ 0.941 µM) |  |  |  |  | 
